In one assay the test system is glutaminase. Briefly: Glutaminase activity in post-ischemic kidney tissues. Conditions: post-ischemic kidney tissues at 24 h after IRI; JHU083 1.83 mg/kg i.p. every other day; P=0.008. It counts as in vivo, mouse. The method, then: To confirm that JHU083 suppressed glutamine-related enzymes in kidneys, glutaminase activities were measured in post-ischemic kidney tissues at 24 h after IRI.
(§1) Glutamine antagonist, JHU083 was synthesized as previously described, Rais et al., 2016, and dissolved in 50 mM […] 4-(2-hydroxyethyl)-1-piperazineethanesulfonic acid (HEPES) buffered 0.9% saline. Aliquot stocks were stored at −80° C. and thawed right before injection. Before the IRI surgery or cisplatin injection, mice were administered 1.83 mg/kg JHU083 (equivalent to 1 mg/kg DON) or vehicle (50 mM HEPES buffered 0.9% saline) every other day via intraperitoneal injection. Following 4 consecutive dosages, mice underwent IRI surgery or cisplatin injection. The last additional dose was given at 24 h after IRI or cisplatin injection. This dosage regimen was chosen based on efficiency and toxicity data from a previous study. Hollinger et al., 2020.
Glutaminase activity measurements in kidney samples were adapted from previously described protocols. Engler et al., 2002. […] [^3H]-Glutamate, the reaction product, was then eluted with 0.1 N HCl and analyzed for radioactivity using Perkin Elmer's TopCount instrument in conjunction with their 96-well LumaPlates. […]

For assay [1], the system named is ischemic AKI in C57BL/6J mice. The assay can be described thus: Ischemic AKI model (bilateral IRI 30 min): kidney function and histology. It counts as in vivo, mouse. How it is done: Mice were treated with 1.83 mg/kg of JHU083 or vehicle every other day via intraperitoneal injection and underwent bilateral IRI surgery on day 7 after the initial injection. […] Hollinger et al., 2020. Mice were followed up until 72 h after IRI, and T cells isolated from post-ischemic kidneys were studied (FIG. 14A).
Mice were anesthetized with an intraperitoneal injection of pentobarbital (75 mg/kg; Akorn, Lake Forest, IL). After shaving of abdominal hair, mice were placed onto a thermostatically controlled heating table. Abdominal midline incision was performed, and both renal pedicles were dissected and clamped for 30 min with a microvascular clamp (Roboz Surgical Instrument, Gaithersburg, MD). After 30 min, microvascular clamps were released from renal pedicles and the kidneys were inspected to confirm reperfusion. During the surgery, mice were kept well hydrated with 1 mL of warm sterile 0.9% saline. After being sutured, mice were allowed to recover with free access to chow and water. Sham surgeries were performed identically without clamping of renal pedicles.
Blood samples were obtained at 0, 24, 48, and 72 h after IRI or cisplatin injection through tail vein collection. Plasma creatinine concentration was measured by Cobas Mira Plus automated analyzer system (Roche, Indianapolis, IN) with creatinine reagent (Pointe Scientific Inc, Canton, MI).
At 24 h after IRI and 72 h after cisplatin injection, mice were anesthetized with ketamine (130 mg/kg; VetOne, Boise, ID) and xylazine (7 mg/kg; Akorn) intraperitoneal injection. After exsanguination, kidneys were collected and fixed with 10% buffered formalin followed by paraffin embedding. Tissue sections were stained with hematoxylin and eosin. A renal pathologist scored necrotic tubules in a blinded fashion.
as §1

The next assay concerns splenic T cells. Briefly: In vitro hypoxia/reoxygenation of CD3/CD28 stimulated splenic T cells. It counts as cell-based, mouse. The method, then:
In vitro studies were performed to evaluate the effect of glutamine blockade on activated T cells under hypoxia followed by reoxygenation. Splenic T cells (CD45^+, TCR αβ^+) were isolated and cultured using media containing 0.25 μM, 0.5 μM, or 1 μM of JHU083 or vehicle. After 24 h from the culture under CD3/CD28 stimulation, cells were exposed to hypoxia for 24 h followed by reoxygenation.
Kidney T cells were isolated using FACS. Briefly, single-cell suspension of KMNCs was preincubated with anti-CD16/CD32 Fc block (S17011E, BioLegend) stained in Cell Staining Buffer (BioLegend) with fluorochrome-labeled antibodies: APC-Cy7 anti-CD45 (30-F11) and BV421 anti-TCRβ ([…]) from BioLegend. Live Dead Aqua (Thermo Fisher Scientific) was stained for viability assay. […] TCRβ^+ cells were sorted with FACSAria II Cell Sorter (BD Bioscience). Splenic T cells were isolated from single cells suspension of spleens using a T Cell Isolation Kit II (Miltenyi Biotec, North Rhine-Westphalia, Germany) according to the manufacturer's guideline.
48-well flat-bottom plates were coated with 5-μg/mL anti-CD3 in PBS and incubated at 4° C. overnight. […]

Regarding `CCOC(=O)[C@H](CCC(=O)C=[N+]=[N-])NC(=O)[C@@H](N)CC(C)C` [JHU083], the “glutaminase activities, decrease” value with glutaminase was found to be 29%. Moreover, the “plasma creatinine at 24 h” value in assay [1] (24 h after IRI, JHU083 1.83 mg/kg i.p. every other day, mean±SEM, vehicle 1.61±0.18, P=0.026) came out at 1.07 ± 0.14 mg/dL. The compound also yielded a cortical necrotic tubules in assay [1] (24 h after IRI, vehicle 6.6±0.9, P=0.039) of 4.2±0.5%. In assay [1] (24 h after IRI, vehicle 69.7±3.1, P=0.093), this compound had a medullary necrotic tubules of 58.3±5.7%. In addition, the renal injury result in assay [1] (Example 1, FIG. 7, treated before inducing AKI) is reported as “attenuated renal injury at 24 hr”. In addition, the “expression of activation and proliferation markers (CD44, CD69, CD25, Ki67)” value with splenic T cells (0.25 μM, 0.5 μM, or 1 μM JHU083, 24 h hypoxia followed by reoxygenation, dose-dependent, vs vehicle) is “reduced expression of activation and proliferation markers”. In the assay on splenic T cells (CD3/CD28 stimulation, hypoxia/reoxygenation, FIG. 18B), the “metabolic profiles of treated T cells” value is listed as “exhibited unstimulated T cell phenotypes”.

Values taken from patent publication US20240408114A1, “METHODS FOR PREVENTING AND TREATING ACUTE KIDNEY INJURY” (The Johns Hopkins University, priority 2021, published 2024).
